Experimental data reported in patent publication US4190666A, “Anti-inflammatory 4,5-diarly-2-(substituted-thio)imidazoles and their corresponding sulfoxides and sulfones” (E. I. Du Pont de Nemours and Company, priority 1978, dated 1980).
Where two headings read alike, the source gives them in different places.

Key:
[1] = test system: non-established adjuvant-induced arthritis in rats; experiment: Non-established adjuvant-induced arthritis in rats (prevention of development, paw volume); assay type: in vivo, Charles River Lewis male rats; settings: for ED50: Rattus norvegicus, read-out: ED50% non-established arthritis; for effectiveness in preventing development of arthritis compared with treating established arthritis: non-established vs established arthritis, rats
Protocol: Non-Established Adjuvant-Induces Arthritis in Rats
A test used primarily to determine the effects of compounds on the immunological reactions involved in the induction process and to prevent the development of arthritis.
Charles River Lewis male rats (130-150 grams) are injected subcutaneously in the plantar area of the right hind paw with 0.1 ml of adjuvant (Difco heat-killed, lyophilized Mycobacterium butyricum suspended in mineral oil 5 mg/ml). 40 Non-arthritic controls are injected with mineral oil. Groups of 20 rats are given single, daily oral doses of compound (in PVA-Acacia vehicle, 10 ml/kg) or vehicle by gavage beginning immediately following paw injection for a total of 14 doses. The paw volume of the uninjected (left) hind paw is measured 24 hours after the last dose using a Ugo Basile Volume differential meter Model 7101. The ED50% decrease from control is determined as described above.

[2] = test system: immunologic reactions / rheumatoid arthritis; settings: background; cited from earlier work
[3] = test system: plaque forming (antibody producing) spleen cells of rats with adjuvant-induced arthritis; experiment: Modified Jerne spleen cell hemolytic plaque assay; assay type: in vivo, rats (Charles River Lewis); settings: for effect on number of plaque forming cells (PFC): arthritic rats
Protocol: MODIFIED JERNE SPLEEN CELL HEMOLYTIC PLAQUE ASSAY
A modification of the technique described by N. K. Jerne and A. A. Nordin (Science, 140, 450, 1963) was used in these studies. Rats (Charles River Lewis) with adjuvant-induced arthritis (and non-arthritic controls) were dosed orally ounce per day with PVA-Acacia vehicle* or compounds in vehicle from day 14 (following adjuvant injection) to day 20. The animals were sensitized with sheep red blood cells (SRBC) (0.2 ml of a 10% suspension=[…]) I.V. on day 17. The SRBC (Microbiological Associates) were washed 3 times in 0.9% sodium chloride solution prior to injection. On day 21 the rats were anesthetized with 1% sodium pentobarbital I.P. and the spleens were removed. Each spleen was placed on a stainless steel screen suspended over a plastic beaker in an ice bath and gently macerated with a glass syringe plunger. The cells were washed through the mesh into the beaker using a pasteur pipette to apply about 10 ml of Eagle's Minimal Essential Medium (MEM) during the maceration process until only fibrous material remained on the screen. Large particles were allowed to settle out for about 5 minutes and about 5 ml of supernatant was transferred to a plastic tube. Dilutions of 1:10 and 1:20 were made in cold MEM.
Plating: 2 ml of 0.7% Agarose (1.4% diluted 1:2 with 2X Eagles MEM) and 0.2 ml of a 10% SRBC suspension were pre-warmed in a 45° C. water bath. 20 Lambda of spleen cell dilution were added, mixed gently and poured into a supporting layer of 2 ml of 1.4% Agarose in a 60×15 mm plastic petri plate. Plates were incubated at 37° C. for 1.5 hours in a humidified incubator. 1.5 ml of guinea pig complement (diluted 1:10 with MEM) was added and incubation was continued for 1 hour longer.
Zones of hemolysis (plaques) per plate were counted without magnification against a diffuse light source. Assuming each plaque to have resulted from hemolysin produced by a single spleen cell, the number of plaque forming cells (PFC) per million spleen cells was calculated for each dilution. The statistical calculations (mean, standard error and "t" test) included the PFC/million count for each dilution of each spleen.

[4] = test system: established adjuvant-induced arthritis in rats; experiment: Established adjuvant-induced arthritis in rats (therapeutic, paw volume); assay type: in vivo, Charles River Lewis male rats; settings: Rattus norvegicus
[5] = test system: B lymphocytes in spleen cell suspensions; settings: for effect on B lymphocyte proportion / lymphocyte population: arthritic rats
[6] = Table V, oral, 14 daily doses from adjuvant injection
[7] = po, Table V, read-out: ED50% established arthritis
[8] = po, established arthritis, 7 daily doses, ED50% decrease from control paw volume, Tables I-III, read-out: Adjuvant Arthritis (ED50%)

O=P1(N(CCCl)CCCl)NCCCO1 (centres unmarked) [Cyclophosphamide, reference compound]
ED50 [1, 6]: 1.5 mg/kg
effectiveness in preventing development of arthritis compared with treating established arthritis [1]: more effective in preventing the development of arthritis in rats than in treating established arthritis in rats
effectiveness in treatment of rheumatoid arthritis [2]: effective in the treatment of rheumatoid arthritis
toxicity for wide-spread use [2]: too toxic for wide-spread use
effect on number of plaque forming cells (PFC) [3]: reduced the PFC far below normal
mean plaque forming cells per million spleen cells (N = 20) ([3]; daily oral dose 5.0 mg/kg): 25 cells per million spleen cells
ED50 [4, 7]: 10 mg/kg
effect on B lymphocyte proportion / lymphocyte population [5]: reduced the B lymphocyte proportion to below normal
mean % B cells ([5]; daily oral dose 5 mg/kg): 25%

FC(F)C(F)(F)Sc1nc(-c2ccccc2)c(-c2ccccc2)[nH]1 [Example 18, 4,5-Diphenyl-2-(1,1,2,2-tetrafluoroethylthio)imidazole]
ED50 [1, 6]: 2.3 mg/kg
mean plaque forming cells per million spleen cells (N = 20) ([3]; daily oral dose 1.5 mg/kg): 197 cells per million spleen cells
mean plaque forming cells per million spleen cells (N = 20) ([3]; daily oral dose 15 mg/kg): 320 cells per million spleen cells
ED50 [4, 7]: 0.75 mg/kg
ED50 [4, 8]: 0.75 mg/kg
mean % B cells ([5]; daily oral dose 1.5 mg/kg, pooled data from 2 experiments (N = 10)): 37%
mean % B cells ([5]; daily oral dose 15 mg/kg, pooled data from 2 experiments (N = 10)): 34%

FC(F)C(F)(F)Sc1nc(-c2ccc(Cl)cc2)c(-c2ccc(Cl)cc2)[nH]1 [Example 39]
ED50 [1, 6]: 0.06 mg/kg
mean plaque forming cells per million spleen cells (N = 20) ([3]; daily oral dose 0.1 mg/kg): 788 cells per million spleen cells
mean plaque forming cells per million spleen cells (N = 20) ([3]; daily oral dose 1.0 mg/kg): 488 cells per million spleen cells
ED50 [4, 7]: 0.2 mg/kg
ED50 [4, 8]: 0.3 mg/kg
mean % B cells ([5]; daily oral dose 0.2 mg/kg, pooled data from 2 experiments (N = 10)): 37%
mean % B cells ([5]; daily oral dose 2.0 mg/kg, pooled data from 2 experiments (N = 10)): 35%

O=S(=O)(c1nc(-c2ccc(F)cc2)c(-c2ccc(F)cc2)[nH]1)C(F)(F)C(F)F [Example 71, 4,5-bis(4-fluorophenyl)-2-(1,1,2,2-tetrafluoroethylsulfonyl)imidazole]
ED50 [1, 6]: 0.03 mg/kg
mean plaque forming cells per million spleen cells (N = 20) ([3]; daily oral dose 0.03 mg/kg): 499 cells per million spleen cells
mean plaque forming cells per million spleen cells (N = 20) ([3]; daily oral dose 0.3 mg/kg): 439 cells per million spleen cells
ED50 [4, 7]: 0.03 mg/kg
ED50 [4, 8]: 0.025 mg/kg
mean % B cells ([5]; daily oral dose 0.03 mg/kg, pooled data from 3 experiments (N = 15)): 38%
mean % B cells ([5]; daily oral dose 0.3 mg/kg, pooled data from 3 experiments (N = 15)): 41%

O=S(=O)(c1nc(-c2ccc(Cl)cc2)c(-c2ccccc2)[nH]1)C(F)(F)C(F)F [Example 86, 4(or 5)-(4-chlorophenyl)-5(or 4)-phenyl-2-(1,1,2,2-tetrafluoroethylsulfonyl)imidazole]
mean plaque forming cells per million spleen cells (N = 20) ([3]; daily oral dose 0.07 mg/kg): 412 cells per million spleen cells
mean plaque forming cells per million spleen cells (N = 20) ([3]; daily oral dose 0.7 mg/kg): 367 cells per million spleen cells
ED50 [4, 8]: 0.065 mg/kg
mean % B cells ([5]; daily oral dose 0.1 mg/kg): 48%
mean % B cells ([5]; daily oral dose 1.0 mg/kg): 42%

COc1ccc2c(c1)c(CC(=O)O)c(C)n2C(=O)c1ccc(Cl)cc1 [Indomethacin, reference compound]
ED50 ([1]; po): 3 mg/kg
effectiveness in preventing development of arthritis compared with treating established arthritis [1]: less effective in preventing the development of arthritis in rats than in treating the inflammation in established arthritis
effect on immunologic reactions in rheumatoid inflammation [2]: have no effect on these immunologic reactions
effect on number of plaque forming cells (PFC) [3]: had no effect on the number of PFC
mean plaque forming cells per million spleen cells (N = 20) ([3]; daily oral dose 1.0 mg/kg): 694 cells per million spleen cells
ED50 ([4]; Table V, oral, read-out: ED50% established arthritis): 0.3 mg/kg
effect on B lymphocyte proportion / lymphocyte population [5]: had no effect on the lymphocyte population
mean % B cells ([5]; daily oral dose 0.5 mg/kg): 57%

CCCCC1C(=O)N(c2ccccc2)N(c2ccccc2)C1=O [Phenylbutazone]
ED50 [1, 6]: 35 mg/kg
effectiveness in preventing development of arthritis compared with treating established arthritis [1]: less effective in preventing the development of arthritis in rats than in treating the inflammation in established arthritis
effect on immunologic reactions in rheumatoid inflammation [2]: have no effect on these immunologic reactions
ED50 [4, 7]: 10 mg/kg
mean % B cells ([5]; daily oral dose 20 mg/kg): 53%

CC(=O)Oc1ccccc1C(=O)O [aspirin]
effect on immunologic reactions in rheumatoid inflammation [2]: have no effect on these immunologic reactions

CC(C)Cc1ccc(C(C)C(=O)O)cc1 (centres unmarked) [ibuprofen]
effect on immunologic reactions in rheumatoid inflammation [2]: have no effect on these immunologic reactions
